The results in this text go back to ChEMBL document CHEMBL4411281, “Unravel a neuroactive sHA sulfation pattern with neurogenesis activity by a library of defined oligosaccharides” (Eur J Med Chem, 2019).

The nature of assay [1]: Induction of neurite outgrowth in Sprague-Dawley E18 rat hippocampal neurons assessed as neurite length after 24 hrs by DAPI staining-based assay relative to control. The class given is functional, Hippocampal neurone.
Assay [2] addresses T1, Neurotrophic factor BDNF precursor form (Homo sapiens, UniProt P23560).
T1 sequence (P23560 whole entry): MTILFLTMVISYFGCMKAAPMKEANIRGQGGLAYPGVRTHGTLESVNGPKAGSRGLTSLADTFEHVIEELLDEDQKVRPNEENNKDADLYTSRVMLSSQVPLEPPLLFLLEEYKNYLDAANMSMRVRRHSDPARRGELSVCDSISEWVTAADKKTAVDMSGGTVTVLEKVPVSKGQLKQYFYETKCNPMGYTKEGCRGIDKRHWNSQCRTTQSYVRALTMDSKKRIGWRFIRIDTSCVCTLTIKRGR
In words: Binding affinity to BDNF (unknown origin) by SPR assay.

Assay [3] deals with T2, Midkine (Homo sapiens, UniProt P21741).
T2 sequence (P21741 whole entry): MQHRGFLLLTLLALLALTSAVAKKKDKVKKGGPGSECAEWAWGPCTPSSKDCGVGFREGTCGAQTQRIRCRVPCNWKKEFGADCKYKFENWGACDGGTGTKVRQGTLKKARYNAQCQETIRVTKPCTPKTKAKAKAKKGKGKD
Nature of the assay: Binding affinity to MDK (unknown origin) by SPR assay.

Assay [4] deals with T3, Pleiotrophin (Homo sapiens, UniProt P21246).
T3 sequence (P21246 whole entry): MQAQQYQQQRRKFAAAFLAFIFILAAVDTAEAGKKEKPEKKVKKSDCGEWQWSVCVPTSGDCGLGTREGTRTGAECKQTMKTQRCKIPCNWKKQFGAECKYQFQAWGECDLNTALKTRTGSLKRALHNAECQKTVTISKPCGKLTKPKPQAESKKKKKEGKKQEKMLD
In words: Binding affinity to PTN (unknown origin) by SPR assay.

The target in assay [5] is Fibroblast growth factor 1 (Homo sapiens) (UniProt P05230). Nature of the assay: Binding affinity to FGF-1 (unknown origin) at 800 nM by SPR assay.
Assay [6] has as its system Hippocampal neurone. In words: Induction of neurite outgrowth in Sprague-Dawley E18 rat hippocampal neurons assessed as neurite length after 24 hrs in presence of anti-MDK antibody by DAPI staining-based assay relative to control. The class given is functional, cell-based.
The test system of assay [7] is Hippocampal neurone. Nature of the assay: Induction of neurite outgrowth in Sprague-Dawley E18 rat hippocampal neurons assessed as neurite length after 24 hrs in presence of anti-BDNF antibody by DAPI staining-based assay relative to control. The class given is functional, cell-based.
Assay [8] has as its system Hippocampal neurone. In words: Induction of neurite outgrowth in Sprague-Dawley E18 rat hippocampal neurons assessed as neurite length at 250 ug/ml solubilized in culture media after 24 hrs by DAPI staining-based assay relative to control. It is filed as functional, cell-based.
Assay [9] has as its target T4, Midkine (Homo sapiens) (UniProt P21741).
T4 sequence (whole entry): T2 sequence (P21741 whole entry)
In words: Binding affinity to MDK (unknown origin) at 800 nM by SPR assay.

Assay [10] has as its target T5, Pleiotrophin (Homo sapiens) (UniProt P21246).
T5 sequence (whole entry): T3 sequence (P21246 whole entry)
In words: Binding affinity to PTN (unknown origin) at 800 nM by SPR assay.

Assay [11] has as its target T6, Neurotrophic factor BDNF precursor form (Homo sapiens) (UniProt P23560).
T6 sequence (whole entry): T1 sequence (P23560 whole entry)
In words: Binding affinity to BDNF (unknown origin) at 800 nM by SPR assay.

For assay [12], the system named is Hippocampal neurone. In words: Induction of neurite outgrowth in Sprague-Dawley E18 rat hippocampal neurons assessed as neurite length at 50 ug/ml in presence of Proteus vulgaris Chondroitinase ABC after 12 hrs by DAPI staining-based assay relative to control. The class given is functional, cell-based.

Active and inactive are the calls of the source. The calls are words filed in the database; no cut-off is given here.

Chain of Fibroblast growth factor 1 (Homo sapiens) (P05230 whole entry): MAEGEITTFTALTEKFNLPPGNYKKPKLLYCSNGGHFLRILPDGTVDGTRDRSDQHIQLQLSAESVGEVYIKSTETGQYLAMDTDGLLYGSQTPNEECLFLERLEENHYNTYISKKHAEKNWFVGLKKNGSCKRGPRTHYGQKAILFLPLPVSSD

Regarding `CC(=O)N[C@H]1[C@H](O[C@H]2[C@H](O)[C@@H](O)[C@H](O[C@H]3[C@H](O)[C@@H](COS(=O)(=O)O)O[C@@H](OCCCCCCN=[N+]=[N-])[C@@H]3NC(C)=O)O[C@@H]2C(=O)O)O[C@H](COS(=O)(=O)O)[C@@H](O)[C@@H]1O[C@@H]1O[C@H](C(=O)O)[C@@H](O)[C@H](O)[C@H]1O`, the Activity in assay [1] was 27.3%. Moreover, the Kd is 0.49 µM in [2], 0.0523 µM in [3] and 0.0778 µM in assay [4]. Also, the result in assay [5], in [6], in [7] and in assay [8] was inactive.
`CC(=O)N[C@H]1[C@H](O[C@H]2[C@H](O)[C@@H](O)[C@H](O[C@@H]3[C@@H](NC(C)=O)[C@H](OCCCCCCN=[N+]=[N-])O[C@H](COS(=O)(=O)O)[C@H]3OS(=O)(=O)O)O[C@@H]2C(=O)O)O[C@H](COS(=O)(=O)O)[C@@H](OS(=O)(=O)O)[C@@H]1O[C@@H]1O[C@H](C(=O)O)[C@@H](O)[C@H](O)[C@H]1O`: in assay [1], the Activity was found to be 6.7%. Further, binding in [2] was characterised by a dissociation constant (Kd) of 0.659 µM. For the same compound, the result in assay [9], in assay [10] and in assay [5] was inactive.
Turning to `CC(=O)N[C@H]1[C@H](O[C@H]2[C@H](O)[C@@H](O)[C@H](O[C@@H]3[C@@H](NC(C)=O)[C@H](OCCCCCCN=[N+]=[N-])O[C@H](CO)[C@H]3OS(=O)(=O)O)O[C@@H]2C(=O)O)O[C@H](CO)[C@@H](OS(=O)(=O)O)[C@@H]1O[C@@H]1O[C@H](C(=O)O)[C@@H](O)[C@H](O)[C@H]1O`, the outcome in [11], in [9], in assay [10] and in assay [5] was inactive.
Take `CC(=O)N[C@H]1[C@H](O[C@H]2[C@H](O)[C@@H](O)[C@H](O[C@H]3[C@H](O)[C@@H](CO)O[C@@H](OCCCCCCN=[N+]=[N-])[C@@H]3NC(C)=O)O[C@@H]2C(=O)O)O[C@H](CO)[C@@H](O)[C@@H]1O[C@@H]1O[C@H](C(=O)O)[C@@H](O)[C@H](O)[C@H]1O`: the result in assay [11], in assay [9], in assay [10] and in assay [5] was inactive.
As for `CC(=O)N[C@H]1[C@H](O[C@H]2[C@H](O)[C@@H](O)[C@H](O[C@@H]3[C@@H](NC(C)=O)[C@H](OCCCCCCN=[N+]=[N-])O[C@H](COS(=O)(=O)O)[C@@H]3OS(=O)(=O)O)O[C@@H]2C(=O)O)O[C@H](COS(=O)(=O)O)[C@H](OS(=O)(=O)O)[C@@H]1O[C@@H]1O[C@H](C(=O)O)[C@@H](O)[C@H](O)[C@H]1O`, in assay [1], the Activity turned out to be 29.6%. The results for the Kd in [2], in assay [3] and in assay [4] were 0.155 µM, 0.0963 µM and 0.365 µM, respectively. For the same compound, the result in [5], in assay [8] and in assay [12] was inactive.
On to `CC(=O)N[C@H]1[C@H](O[C@H]2[C@H](O)[C@@H](O)[C@H](O[C@H]3[C@@H](O)[C@@H](COS(=O)(=O)O)O[C@@H](OCCCCCCN=[N+]=[N-])[C@@H]3NC(C)=O)O[C@@H]2C(=O)O)O[C@H](COS(=O)(=O)O)[C@H](O)[C@@H]1O[C@@H]1O[C@H](C(=O)O)[C@@H](O)[C@H](O)[C@H]1O`, for which, in assay [1], the Activity stood at 1%. For the same compound, the result in assay [11], in assay [9], in [10] and in assay [5] was inactive.
